{
  "source": "patent US6025365A",
  "about": "“Chelerythrine and radiation combined tumor therapy” (Arch Development Corp., priority 1997, dated 2000)",
  "key": {"SQ-20B cells": {"test_system": "SQ-20B cells", "experiment": "Viability by propidium iodide exclusion and FACS", "conditions": "2.5 μM chelerythrine and 8 Gy", "description": "Cells, 2.5-3.5×10^5, were cultured in 24-well tissue culture plates for all experiments following standard procedures as previously described (Chmura et al., 1996a; 1996b). Cells were treated with varying concentrations of chelerythrine, incubated for 30 minutes at 37° C. and then irradiated. Radiation for all samples was delivered using a ^60 Co-irradiator (Gammacell 220, Atomic Energy of Canada) at a dose rate of 2.0 Gy/sec. After the indicated time points, cells were harvested, washed once in PBS, and resuspended in PBS containing […] propidium iodide. […] Cells undergoing apoptosis also shrink in size. Cells were analyzed via flow cytometry (FACS) following standard procedures as described in (Chmura et al., 1996a; 1996b) on a FACScan (Becton-Dickson) using Lysis II software."}, "SQ-20B xenografts": {"test_system": "SQ-20B xenografts", "experiment": "Histology of SQ-20B xenografts", "type": "in vivo, nude mice (human tumor xenograft)", "conditions": "combined x-ray and chelerythrine vs IR", "description": "Tumors were injected once or twice (day 0 and day 4) with chelerythrine, chelerythrine and 20 Gy (5 Gy/Day) or 20 Gy alone and excised on day 7, fixed in 10% neutral buffered formalin. Tumors were then trimmed and processed in a Tissue Tek II Tissue Processor. Tissues were embedded in paraffin, sectioned and stained with hematoxylin and eosin or with […] of DAPI (4',6-iamidino-2-phenylindole, Sigma D9542, 1 μg/ml in PBT (PBS+1% Triton X-100)), followed by examination for apoptosis and necrosis by light microscopy.\nIn contrast, 1/16 of the radiation+buffer and 13/43 of the chelerythrine only treated animals regressed to less than 10% of the initial tumor volume. […] Representative sections of non-necrotic areas of tumors were stained with DAPI to detect nuclear changes of apoptosis. Tumor sections were taken at day 7 following treatment with 2 injections of chelerythrine alone, 20 Gy alone, 1 injection of chelerythrine and 20 Gy, or 2 treatments with chelerythrine and 20 Gy. Nuclei from non-necrotic areas of tumors treated with radiation alone appeared rounded and contained a smooth heterachromatin appearance. Few apoptotic nuclei as defined by chromatin margination and nuclear shrinkage could be detected in these areas."}, "WEHI-231 cells": {"test_system": "WEHI-231 cells", "experiment": "Apoptosis / cell death of WEHI-231 (propidium iodide FACS, gel electrophoresis, DAPI)", "type": "cell-based, murine", "conditions": "24 hours; chelerythrine 10 μM or calphostin C 250 nM", "description": "Cells undergoing apoptosis also shrink in size.\nCells, 5×10^5, were centrifuged at 1000 rpm and resuspended in approximately 100 μl cell culture media. The cell suspension was then mixed with 100 μl of DAPI (4',6-iamidino-2-phenylindole, Sigma D9542, 1 μg/ml in PBT (PBS+1% Triton X-100)). One drop of this mixture was placed on a microslide with a coverslip. The cells were viewed by fluorescence microscopy using an Olympus BX-40 microscope with a 100 Watt Mercury lamp, a 16 or 40 X Fluorite objective, N.A. 0.75, (Leco #1-UB527) and a UV filter cube (ex 330-385 nm, em 420 nm, wide band pass, Leco #U-M536). Images were photographed using an Optronics cooled low-light video camera (Leco #DEI-470TB) to which was attached a 2X coupler (Leco #HR200-CMT). The image was saved to a digital file at 72 dpi.\nDNA degradation was assessed as previously described (Gottschalk et al., 1993; 1994). Briefly, following treatment in 100 mm plates or 24 well plates, cells were collected and lysed in 0.5 ml lysis buffer (0.6% SDS+10 mM EDTA, pH 7.0). NaCl was added to a final concentration of 1M, mixed by inversion, incubated for 12 hours at 4° C. and then spun at 14,000 g for 30 minutes. Samples were treated with chloroform (1:1) and precipitated in ethanol prior to electrophoresis in a 3% agarose gel and visualized with ethidium bromide."}, "neutral sphingomyelinase": {"test_system": "neutral sphingomyelinase", "experiment": "Mixed micellar assay, neutral sphingomyelinase activity in treated WEHI-231 cells", "type": "cell-based, murine", "conditions": "chelerythrine, within 30 minutes; SD", "description": "FIG. 7C. Graph of neutral and acidic sphingomyelinase activity normalized to percent of control. Cells (2×10^7) were treated with chelerythrine for 30 minutes prior to being assayed for neutral or acidic sphingomyelinase activity. Error bars represent +/- SEM from 4 individual studies with duplicate determinants.\nThe mixed micellar sphingomyelinase assay using ^[14] C labeled sphingomyelin was performed as described (Wiegmann et al., 1994) with minor modifications as described herein. Exponentially growing cells 2×10^7 were treated, collected, and lysed in 200 μl of neutral buffer (20 mM Hepes, pH 7.4; 10 mM MgCl2, 2 mM EDTA, 5 mM DTT, […], 10 mM b-glycerolphosphate, 750 μM ATP, 1 mM PMSF, Leupeptin, Pepstatin, 2% Triton X-100) or an acid buffer (pH=5.5, 2% Triton X-100, 1 mM PMSF, Leupeptin, Pepstatin). After incubation for 5 minutes at 4° C., cells were homogenized by sonication and cell debris were removed by low speed centrifugation (800×g). The protein concentration was measured using the BioRad protein assay system (BioRad). Protein (50 μg) was incubated for 2 hours at 37° C. in a buffer (1 ml final volume) containing 20 mM HEPES, 1 mM MgCl2, and 0.9 μl [N-methyl-^14 C sphingomyelin]. […] Radioactive phosphorylcholine was measured by scintillation counting. Data is expressed as a percent of control for both the acidic and neutral sphingomyelinases. […]"}},
  "data": [
    {"smiles": "COc1ccc2c(c[n+](C)c3c4cc5c(cc4ccc23)OCO5)c1OC", "note": "[chelerythrine, 1,2-dimethoxy-12-methyl[1,3]benzodioxolo[5,6-c]phenanthridinium]", "values": [
      {"measurement": "decrease in cell survival", "setting": "SQ-20B cells", "value": 85, "unit": "%"},
      {"measurement": "inflammatory response and necrosis in epidermis and muscle", "setting": "SQ-20B xenografts", "value": "did not increase this response"},
      {"measurement": "cell death", "setting": "WEHI-231 cells", "value": "greater than 90%"},
      {"measurement": "neutral sphingomyelinase activity", "setting": "neutral sphingomyelinase", "value": "235% (+/-38 SD)"}
    ]}
  ]
}
